Consider 3 compounds from US20250002954A1, “Novel Compound, Use Thereof, and Method for Producing Same, and Compound-Containing Composition, Method for Producing 4-Trehalosamine, and Microorganism” (Microbial Chemistry Research Foundation, priority 2021, published 2025).

In experiment [1] the test system is aggregated proteins Q74 and SynA53T in SH-SY5Y cells and NH-12 cells. Put plainly: Elimination effect on aggregated protein in cells (Q74, SynA53T). The format is cell-based, human. Conditions: 100 mM 4-trehalosamine, 70 μM IMCTA-C14 or 100 mM trehalose, 14 hours; SH-SY5Y and NH-12 cells. As for the experimental part:
The effect of 4-trehalosamine or trehalose analog on Q74, which is partial peptide of huntingtin (Htt), the causal protein of Huntington's disease, and SynA53T, which is a mutation of α-synuclein, the causal protein of Parkinson's disease, (both aggregated proteins) was determined in the following manner.
Neuroblastoma cells SH-SY5Y (obtained from European Collection of Authenticated Cell Cultures (ECACC)) and human neuroblastoma cells NH-12 (obtained from RIKEN BRC) were each inoculated at 14×10^4 cells/mL and cultured in DMEM culture medium at 37° C. for 48 hours.
After the culture of SH-SY5Y cells and NH-12 cells, pEGFP-Q74 vector or EGFP-alphasynuclein-A53T (both obtained from addgene), which are expression vectors of aggregated protein, were transfected with transfection reagent (Viafect, manufactured by Promega). After 24 hours from the transfection, 100 mM 4-trehalosamine, 70 μM IMCTA-C14, or 100 mM trehalose was added and the cells were further treated for 14 hours. Untreated cells without addition of the compounds were used as control. After washing the cells three times with PBS, hyposmotic fluid (solution of one tablet of cOmplete, Mini, EDTA-free Protease Inhibitor Cocktail (CM, manufactured by Merck) in 50 mL of pure water) was added and the mixture was shaken on ice for 10 minutes. It was then centrifuged at 21,300×g for 10 minutes to be separated into soluble protein (Sol) and aggregated protein (Agg) […]. Thereafter, they were turned into samples for western blotting in a similar manner to test example 10-1.
The western blotting was performed in a similar manner to test example 4 except that anti-GFP antibody (manufactured by Proteintech) was used at 1/5,000 dilution and anti-LC3 antibody (manufactured by Cell Signaling Technology) was used at 1/2,000 dilution as the primary antibodies in the method described in test example 4. The results for neuroblastoma cells SH-SY5Y are shown in FIGS. 22A and 22B, and the results for human neuroblastoma cells NH-12 are shown in FIGS. 22C and 22D. […]

The test system of experiment [2] is human ovarian cancer cells OVK18 and human malignant melanoma cells Mewo. Kind of experiment: Autophagy inducing effect on cultured cells (western blotting of autophagy-related proteins). The format is cell-based. Particulars: 24 hours treatment, western blotting. As for the experimental part:
Expression and phosphorylation patterns of autophagy-related proteins when human ovarian cancer cells or human malignant melanoma cells were treated with 4-trehalosamine and trehalose analog for 24 hours were determined by western blotting.
Human ovarian cancer cells OVK18 (obtained from RIKEN BRC) and human malignant melanoma cells Mewo (JCRB0066) were each inoculated on a 12-well microplate at 8×10^4 cells/mL/well and cultured in DMEM culture medium at 37° C. for 72 hours, after which they were treated with test samples.
The test samples used were the 4-trehalosamine (4TA) obtained in the <Purification process> of production example 10, trehalose (TRH), the IMCTA-Cn compounds obtained in synthesis examples 1 to 8, trehalose ester (TRH-Cn) (manufactured by Dojindo Laboratories), n-dodecyl-β-D-maltoside (DDM), maltose (MLT), sucrose (SCR), and rapamycin (RM). Untreated cells without addition of compounds were used as control.
In treatment with the test samples, in order to avoid contact of a compound with locally high concentration with cells, a half of the culture fluid in each well was taken, and a required amount of test sample was dissolved in it. After dissolving it sufficiently, it was returned to the original well and treated at 37° C. for 24 hours.
Subsequently, culture medium containing the test samples was removed, washed once with PBS, and dissolved with 2×SDS sample buffer not containing 2-mercaptoethanol (2-ME) or bromphenol blue (BPB). After measuring the protein concentration in the dissolved sample with a BCA protein assay kit (manufactured by Thermo Fisher Scientific), 2-ME and BPB were added and the sample was boiled for 5 minutes, which was used as a sample for western blotting.
The western blotting was performed in a similar manner to test example 4 except that anti-LC3 antibody, which is a marker for autophagy, anti-p62, anti-cathepsin D antibody, anti-Phospho-Akt (Ser473) antibody, anti-Akt antibody, anti-Phospho-p70 S6K (T389) antibody, and anti-p70 S6K antibody (all manufactured by Cell Signaling Technology) were used at 1/2,000 dilution as the primary antibodies in the method described in test example 4.
The results for human ovarian cancer cells OVK18 are shown in FIGS. 20A to 20C, and the results for human malignant melanoma cells Mewo are shown in FIGS. 20D to 20F. In FIGS. 20A, 20B, 20D, and 20E, “PCD” denotes precursors of cathepsin D and “CD-HC” denotes cathepsin D heavy chain.
A general note: A western blot detects proteins with antibodies after separation by electrophoresis.

Turning to `N[C@H]1[C@H](O)[C@@H](O)[C@@H](O[C@H]2O[C@H](CO)[C@@H](O)[C@H](O)[C@H]2O)O[C@@H]1CO` [4-trehalosamine], in experiment [1], the “aggregate of Q74 and aggregate of SynA53T” value is recorded as “significantly decreased”. Besides, the “expression of LC3-II (autophagy marker)” value in experiment [2] is listed as “elevated expression of LC3-II”. With `OC[C@H]1O[C@@](CO)(O[C@H]2O[C@H](CO)[C@@H](O)[C@H](O)[C@H]2O)[C@@H](O)[C@@H]1O` [sucrose], the “expression of LC3-II (autophagy marker)” value in experiment [2] is given as “expression of LC3-II was also observed”. With `OC[C@H]1O[C@H](O[C@H]2O[C@H](CO)[C@@H](O)[C@H](O)[C@H]2O)[C@H](O)[C@@H](O)[C@@H]1O` [trehalose, reference compound], in experiment [1], the “aggregate of Q74 and aggregate of SynA53T” value was “significantly decreased”.
